Measured values reported in patent US4113858A, “Novel compounds, compositions and methods of their use” (St. Luke's Hospital, priority 1976, dated 1978).
Like-named read-outs stand apart in the source and are kept apart here. Ends that are not written are not given here.

Tests used:
Guinea Pigs [1] = assay: Non-encephalitogenic properties of Compound V, disease index (Table II); assay type: in vivo
Description: A number of guinea pigs are divided into equal groups I, II, III, IV, V, VI and VII. Each of groups I, II, III and IV are given a single subcutaneous administration of the compound (V) (formula: H -- Phe -- Ser -- Trp -- Gln -- Lys )4 Gly -- OH) prepared according to Example 1. supra. The dose administered, in Complete Freund's adjuvant and the disease index (number of animals showing disease symptons/number tested) obtained after 30 and 120 days, respectfully, are given in Table II below. Groups, V, VI and VII serve as controls. Group V received a single administration of the myelin basic protein (BP), group VI received a single administration of peptide E (E), the encephalitogenic region derived from the encephalitogenic basic protein. Group VII received a single administration of Complete Freund's adjuvant alone.
The figures show the number of diseased guinea pigs per number tested. The disease index for experimental allergic encephalomyelitis (EAE) is reported in terms of clinical and histophathological criteria by day 30 following sensitization.

Guinea Pigs [2] = assay: Specificity of delayed type skin hypersensitivity response (Table III); assay type: in vivo
Procedure: Guinea pigs are sensitized (10 animals/group) with 500 μg each of compound (V) (prepared according to Example 1, supra.), myelin basic protein (BP), the alpha -1 component of calf skin (α1 -- calf) and the alpha -1 component of guinea pig collagen (α1 -- g.p.), emulsified in complete Freund's adjuvant. At day 11 after sensitization, the animals were skin tested with various doses of the specific antigens dissolved in saline. Positive responses are indicated by erythema at the skin test site. A control group is administered saline.

Guinea Pigs [3] = assay: Delayed type skin hypersensitivity response (Table IV); assay type: in vivo; settings: carrier CFA, IFA or saline; response dose related
Description: Guinea pigs are sensitized (10 animals/group) with varying doses of the compound (V) (prepared according to Example 1, supra.) administered subcutaneously in Complete Freund's adjuvant, incomplete Freund's adjuvant and saline. At various times following this administration, the animals were skin tested with various doses of compound (V) in saline.
The extent of the DTH response is dose related. Compound (V) induces DTH response regardless of whether the carrier is Complete Freund's adjuvant (CFA), incomplete Freund's adjuvant (IFA) or physiological saline (saline). The values shown are the average skin response of 10 animals in each group. The numbers shown are measurements of the cross-sectional diameters of the erythematous area recorded at 24 hours following the skin test.

Guinea Pigs [4] = assay: Challenge with Compound V in Freund's complete adjuvant (Table VII, groups 1-3); assay type: in vivo; settings: no treatment
Guinea Pigs [5] = tested on: Guinea Pigs
[6] = Group 1: challenge 25 μg in FCA
[7] = Group 2: challenge 100 μg in FCA
[8] = Group 3: challenge 5,000 μg in FCA
[9] = Group 9: challenge 150 μg BP, 4.0 mg daily, started second day after onset of hind leg paralysis

With “FSWQKFSWQKFSWQKFSWQKG [Compound V, H -- Phe -- Ser -- Trp -- Gln -- Lys]4 Gly -- OH]” the “Disease Index” value (Guinea Pigs [1]; Day 30, 0.005 mg antigen in CFA, single s.c.) was 0/10, the “Disease Index” value (Guinea Pigs [1]; Day 30, 0.025 mg antigen in CFA, single administration) was 0/15 and the “Disease Index” value (Guinea Pigs [1]; Day 30, 0.100 mg antigen in CFA, single s.c.) was 0/20. For the same sequence, the “Disease Index” value (Guinea Pigs [1]; Day 30, 0.500 mg antigen in CFA, single s.c., diseased/tested) was 0/10, the “Disease Index” value (Guinea Pigs [1]; Day 120, 0.100 mg antigen in CFA) was 0/10 and the “Disease Index” value (Guinea Pigs [1]; Day 120, 0.500 mg antigen in CFA) was 0/10. The “delayed skin response elicited” value (Guinea Pigs [2]; in animals sensitized with compound V or BP) was “positive delayed skin responses”, the “delayed skin response elicited” value (Guinea Pigs [2]; in animals sensitized with the α1-calf or α1-g.p. component of skin collagen) was “negative skin responses” and the “antigenicity / induction of delayed type hypersensitivity (DTH)” value (Guinea Pigs [3]) was “antigenic and induces delayed type hypersensitivity (DTH)”. For the same sequence, the “Clinical EAE” value (Guinea Pigs [4]; [6]) was 0/15, the “Histological EAE” value (Guinea Pigs [4]; [6]) was 0/15 and the “Clinical EAE” value (Guinea Pigs [4]; [7]) was 0/10. For the same sequence, the “Histological EAE” value (Guinea Pigs [4]; [7]) was 0/15, the “Clinical EAE” value (Guinea Pigs [4]; [8]) was 0/10 and the “Histological EAE” value (Guinea Pigs [4]; [8]) was 0/10. For the same sequence, the “Clinical EAE” value (Guinea Pigs [5]; Group 4: challenge 100 μg BP in FCA, 1 mg daily s.c. in FIA day 8 through day 17) was 2/4, the “Clinical EAE” value (Guinea Pigs [5]; Group 4: challenge 100 μg BP in FCA, 1 mg daily s.c. in FIA day 8 through day 17, listed as compound (V)) was “significantly reduced the incidence of disease” and the “Reversal clinical EAE” value (Guinea Pigs [5]; Group 4: challenge 100 μg BP, 1 mg daily s.c. in FIA day 8 through day 17) was 2/4. For the same sequence, the “Histological EAE” value (Guinea Pigs [5]; Group 4: challenge 100 μg BP, 1 mg daily s.c. in FIA day 8 through day 17, day 32) was 2/4, the “Histological EAE” value (Guinea Pigs [5]; Group 6: challenge 150 μg BP, 2.5 mg daily for 10 days from hind leg paralysis, day 32) was 2/5 and the “Histological EAE” value (Guinea Pigs [5]; Group 6: challenge 150 μg BP, 2.5 mg daily for 10 days from hind leg paralysis, day 32, listed as compound (V)) was 2 out of 5. The “Reversal clinical EAE” value (Guinea Pigs [5]; Group 6: challenge 150 μg BP, 2.5 mg daily for 10 days from the day hind leg paralysis is observed) was 5/5, the “Clinical EAE” value (Guinea Pigs [5]; Group 6: challenge 150 μg BP, 2.5 mg daily s.c. in FIA for 10 days from the day hind leg paralysis is observed) was 5/5 and the “guinea pigs that died without evidence of improvement” value (Guinea Pigs [5]; Group 9, after the second treatment) was “one of seven”. The “Clinical EAE” value (Guinea Pigs [5]; [9]) was 7/7, the “Histological EAE” value (Guinea Pigs [5]; [9]) was 4/7 and the “Reversal clinical EAE” value (Guinea Pigs [5]; [9]) was 6/7.
